From paper PMC10134988, “An Arylbenzofuran, Stilbene Dimers, and Prenylated Diels–Alder Adducts as Potent Diabetic Inhibitors from Morus bombycis Leaves” (Antioxidants, 2023)
Where two headings read alike, the source gives them in different places.

How the values were obtained:
[1] = test system: BSA-AGEs formation; assay: Inhibition of BSA-AGEs formation; type: biochemical; settings: mean ± SD, triplicate
Procedure: (§1) The inhibitory activity of HRAR was examined according to previous literature with modifications. First, 150 µL of 100 mM sodium phosphate buffer (pH 6.2), 20 µL of 0.3 mM NADPH as the co-enzyme, 5 µL of the test samples (50, 10, and 2 mg/mL or 100% DMSO), and 20 µL of 10 mM DL-glyceraldehyde as the substrate were added to each of the 96 wells (final volume 200 µL). Quercetin was used as a positive control. The inhibitory activity of AGEs formation was examined according to the modified method. Aminoguanidine hydrochloride was used as a positive control for the AGEs formation inhibition assay.

[2] = test system: HAS-AGEs formation; assay: Inhibition of HSA-AGEs formation; type: biochemical; settings: mean ± SD, triplicate
Procedure: as §1

[3] = biological target: α-glucosidase; assay: α-Glucosidase inhibitory activity; type: biochemical, Saccharomyces cerevisiae; settings: isolated compounds; mean ± SD, triplicate
Text: (§2) Protein tyrosine phosphatase 1B (PTP1B) was purchased from ENZO (Farmingdale, NY, USA). Human recombinant AR (0.4 units) was purchased from Wako Chemicals (Osaka, Japan). Citric acid trisodium salt dehydrate, citric acid monohydrate, sodium carbonate anhydrous, sodium chloride, sodium phosphate dibasic anhydrous, and sodium phosphate monobasic dehydrate were purchased from SAMCHUN (Seoul, Korea). Peroxynitrite (ONOO^−), 3-[(3-cholamidopropyl)dimethylammonio]-1-propanesulfonate (CHAPS), and sodium azide were purchased from Bio-Rad Laboratories Calbiochem (San Diego, CA, USA), GENERAY BIOTECH (Shanghai, China), and JUNSEI (Chuoku, Tokyo, Japan), respectively.
(§3) The enzyme inhibition study was executed spectrophotometrically following the previous literature.

[4] = biological target: T1, PTP1B (Homo sapiens, UniProt P18031); assay: PTP1B inhibitory activity; type: biochemical
T1 construct: purchased ENZO (Farmingdale, NY, USA)
T1 sequence (P18031 1-435): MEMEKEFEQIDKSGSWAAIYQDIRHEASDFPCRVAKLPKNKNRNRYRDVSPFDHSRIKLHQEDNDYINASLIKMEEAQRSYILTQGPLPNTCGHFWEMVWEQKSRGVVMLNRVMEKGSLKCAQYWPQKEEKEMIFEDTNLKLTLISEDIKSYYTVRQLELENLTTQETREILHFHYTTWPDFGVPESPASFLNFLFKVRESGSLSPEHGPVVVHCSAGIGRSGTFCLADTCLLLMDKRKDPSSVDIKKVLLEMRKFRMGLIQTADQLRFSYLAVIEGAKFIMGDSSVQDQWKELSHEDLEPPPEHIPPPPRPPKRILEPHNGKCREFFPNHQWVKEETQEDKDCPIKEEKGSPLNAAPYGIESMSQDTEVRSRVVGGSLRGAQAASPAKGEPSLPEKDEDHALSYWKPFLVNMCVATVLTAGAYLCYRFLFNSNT
Text: as §2, §3

[5] = ONOO− scavenging activity (DHR123); settings: mean ± SD, triplicate; read-out: Peroxynitirite IC50
Procedure: ONOO^− scavenging activity was measured using the method in previous literature involving measuring highly fluorescent rhodamine 123 that is converted from non-fluorescent DHR123 in the presence of ONOO^− [49].

[6] = biological target: T2, human recombinant aldose reductase (HRAR) (Homo sapiens, UniProt P15121); assay: HRAR inhibitory activity; type: biochemical
T2 construct: purchased Wako Chemicals (Osaka, Japan)
Text: as §2
as §1, with “Quercetin was used as a positive control.” left out

[7] = biological target: α-glucosidase; assay: α-Glucosidase enzyme kinetics (Lineweaver–Burk and Dixon plots); type: biochemical, Saccharomyces cerevisiae; settings: substrate pNPG; for Ki: Dixon plots, read-out: α-Glucosidase Inhibition Constant (Ki); for α-Glucosidase Inhibition Mode: Lineweaver–Burk plots
Procedure: (§4) The two kinetic methods, Lineweaver–Burk plots and Dixon plots, were used to determine the inhibition mechanism. The α-glucosidase inhibition type was measured at various concentrations of substrate (pNPG, 0.625, 1.25, and 2.5 mM) and several concentrations of test compounds (0.8, 0.4, and 0.16 μM for compound 4; 2, 0.8, and 0.16 μM for 6; 3.17, 1.59, and 0.63 μM for 7; 1.54, 1.04, and 0.62 μM for 8) using Lineweaver–Burk double reciprocal plots. The PTP1B enzyme inhibition type was also measured at various concentrations of substrate (pNPP, 0.5, 1.0, 2.0, and 4.0 mM) and several concentrations of test compounds (4.0, 2.0, and 0.8 μM for compound 4; 2.0, 0.8, and 0.16 μM for 6; 15.87, 7.93, 3.17, and 0.63 μM for 7; 6.17, 3.08, 1.54 and 0.78 μM for 8) using Lineweaver–Burk double reciprocal plots. Dixon plots were used to determine the inhibition constant (Ki) of each compound by testing the effects of substrate and compounds against the α-glucosidase and PTP1B under the same conditions as described above.
(§5) Enzyme kinetic analysis was performed with different concentrations of substrate (pNPG and pNPP) and various concentrations of compounds to determine the type of inhibition on the compounds. Lineweaver–Burk and Dixon plots were used to determine the type of inhibition in enzyme kinetics. Each line of inhibitors intersected at the xy-side, indicating mixed-type inhibitors. On the other hand, the lines penetrated the same point on the x-intercept, representing non-competitive inhibitors in Lineweaver–Burk plots, and the Dixon plot was also used to calculate the Ki value for the enzyme inhibitor complex with the value shown on the x-axis indicating the -Ki value.

[8] = biological target: T1, PTP1B; assay: PTP1B enzyme kinetics (Lineweaver–Burk and Dixon plots); type: biochemical; settings: substrate pNPP; for Ki: Dixon plots, read-out: PTP1B Inhibition Constant (Ki); for PTP1B Inhibition Mode: Lineweaver–Burk plots
Procedure: as §4, §5

[9] = ABTS radical scavenging activity; settings: Table 1; mean ± SD, triplicate
Procedure: (§6) The ABTS and DPPH radical scavenging activity of the extract and each fraction obtained from M. bombycis leaves were measured according to previous literature with modifications.

[10] = DPPH radical scavenging activity; settings: Table 1; mean ± SD, triplicate
Procedure: as §6

[11] = isolated compounds, mean ± SD, triplicate, read-out: PTP1B IC50
[12] = one result of a single experiment, read-out: HRAR IC50

Cl.N=C(N)NN [Aminoguanidine, aminoguanidine hydrochloride, reference compound]
IC50 [1]: 581 ± 28.7 µM
BSA-AGEs IC50 ([1]; subfractions of EtOAc fraction, Table S1): 36.73 ± 1.64 µg/mL
IC50 [2]: 504 ± 14.9 µM

Oc1cc(O)cc(-c2cc3cc4c(cc3o2)OC(c2cc(O)cc(O)c2)C(c2ccc(O)cc2O)O4)c1 (stereo not shown) [Austrafuran C (6), austrafuran C]
IC50 [3]: 1010 ± 170 nM
IC50 [4, 11]: 1.69 ± 0.02 µM
IC50 [5]: 2760 ± 250 nM
IC50 [1]: 13.7 ± 0.55 µM
IC50 [2]: 6.15 ± 0.25 µM
IC50 [6, 12]: 26.8 µM
Ki [7]: 750 nM
α-Glucosidase Inhibition Mode [7]: Mixed
Ki [8]: 1450 nM
PTP1B Inhibition Mode [8]: Mixed
PTP1B Inhibition Mode ([8]; listed as 6): mixed-type inhibition

CC(C)=CCc1c(O)ccc(C(=O)[C@H]2[C@@H](c3c(O)cc(-c4cc5ccc(O)cc5o4)cc3O)C=C(C)C[C@@H]2c2ccc(O)cc2O)c1O [Chalcomoracin (8), chalcomoracin]
IC50 [3]: 980 ± 30 nM
IC50 [4, 11]: 2.06 ± 0.39 µM
IC50 [5]: 3030 ± 530 nM
IC50 [1]: 137.6 ± 0.33 µM
IC50 [2]: 113 ± 3.62 µM
IC50 [6, 12]: 265 µM
Ki [7]: 1710 nM
α-Glucosidase Inhibition Mode [7]: Mixed
Ki [8]: 4410 nM
PTP1B Inhibition Mode [8]: Non-competitive
PTP1B Inhibition Mode ([8]; listed as 8): non-competitive-type inhibition

CC(C)(S)[C@H](N)C(=O)O [L-Penicillamine, reference compound]
IC50 [5]: 620 ± 170 nM

O=C1O[C@H]([C@@H](O)CO)C(O)=C1O [L-ascorbic acid]
ABTS IC50 [9]: 3.38 ± 0.19 µg/mL
DPPH IC50 [10]: 2.82 ± 0.57 µg/mL

Oc1cc(O)cc(-c2cc3c4c(c(O)cc3o2)OC(c2ccc(O)cc2O)C4c2cc(O)cc(O)c2)c1 (stereo not shown) [Macrourin B (4), macrourin B]
IC50 [3]: 440 ± 30 nM
IC50 [4, 11]: 2.5 ± 0.17 µM
IC50 [5]: 2610 ± 130 nM
IC50 [1]: 9.44 ± 0.18 µM
IC50 [2]: 7.98 ± 0.62 µM
IC50 [6, 12]: < 4 µM
Ki [7]: 190 nM
α-Glucosidase Inhibition Mode [7]: Mixed
Ki [8]: 1540 nM
PTP1B Inhibition Mode [8]: Mixed
PTP1B Inhibition Mode ([8]; listed as 4): mixed-type inhibition

Oc1cc(O)cc(-c2cc3ccc(O)cc3o2)c1 [Moracin M (5), moracin M]
IC50 [3]: 6110 ± 530 nM
IC50 [4, 11]: 27.1 ± 4.2 µM
IC50 [5]: 920 ± 130 nM
IC50 [1]: 2.4 ± 0.18 µM
IC50 [2]: 2.07 ± 0.03 µM
IC50 [6, 12]: 238 µM

CC(C)=CCc1c(O)ccc(C23Oc4cc(O)ccc4C4CC(C)=CC(c5c(O)cc(-c6cc7ccc(O)cc7o6)cc5O2)C43)c1O (stereo not shown) [Mulberrofuran F (7), mulberrofuran F]
IC50 [3]: 1220 ± 50 nM
IC50 [4, 11]: 10.5 ± 0.25 µM
IC50 [5]: 8630 ± 20 nM
IC50 [6, 12]: 337 µM
Ki [7]: 1840 nM
α-Glucosidase Inhibition Mode [7]: Mixed
Ki [8]: 8900 nM
PTP1B Inhibition Mode [8]: Mixed
PTP1B Inhibition Mode ([8]; listed as 7): mixed-type inhibition

Oc1cc(O)cc(/C=C/c2ccc(O)cc2O)c1 [Oxyresveratrol (3), oxyresveratrol]
IC50 [3]: 2580 ± 230 nM
IC50 [4]: 72.9 ± 1.87 µM
IC50 [5]: 6240 ± 60 nM
IC50 [1]: 10.4 ± 0.39 µM
IC50 [2]: 5.38 ± 0.26 µM
IC50 [6]: 265 µM

Cc1c(C)c2c(c(C)c1O)CCC(C)(C(=O)O)O2 (stereo not shown) [Trolox, 6-hydroxy-2,5,7,8-tetramethylchloman-2-carboxylic acid]
ABTS IC50 [9]: 2.72 ± 0.13 µg/mL
